# Experimental data: patent US7687054B2, “Biocompatible compounds for sustained release pharmaceutical drug delivery systems” (3M Innovative Properties Company, priority 1997, dated 2010)
# Structures can show the parent of a compound that is named as a salt. Where two headings read alike, the source gives them in different places.
# Tests used:
# [1] = Glass transition temperature (Tg) by modulated DSC; format: physicochemical; conditions: PLA/Drug mole/mole ratio 0 (drug alone)
# Experimental: (§1) Thermal properties (glass transition, melting, and degradation points; Tg, Tm, Tdeg) were determined utilizing a modulated differential scanning calorimeter (DSC) TA Instruments, New Castle, Del. A linear heating rate of 5° C./minute was applied, with a perturbation amplitude of ±1° C. every 60 seconds. […] The glass transition temperatures (Tg) reported were taken at the midpoint in the change in heat capacity over the step transition, and were evaluated using the reversing signal curve.
# It will also be recognized that other biologically acceptable molecules (e.g., excipients) which are not the active agent, may be added to improve the matrix material's properties.
# [2] = Degradation temperature by modulated DSC (thermal stability)
# Experimental: as §1
# The salts were prepared by mixing suitable solutions (e.g., acetone, chloroform, methanol) of the drug and PLA in the desired ratio, followed by evaporation and extensive drying under high vacuum to remove all traces of solvent. […] Bioavailability frequently correlates with the water solubility of the drug-complex. The water solubility of the PHAs is dependent on the molecular weight and the nature of the end groups.
# The molecular weight of the acylated polymer necessary to provide an insoluble salt is dependent both on the nature of the drug and the end-group used. It will be recognized that the characteristics (MW, distribution, chemical nature, endgroups, etc.) of the polymer counter-ion will be important to the ultimate pharmacokinetics of the drug.
# [3] = system: antigen (ovalalbumin) challenged guinea pigs; assay: Guinea pig early phase anaphylactic response test (pulmonary dynamic compliance); format: in vivo, male Hartley guinea pigs; conditions: inhalation
# Experimental: Pat. […] Pat. […] Typical inhalation exposure systems were comprised of an aerosol generator, e.g., an MDI, a 150 ml aerosol expansion chamber, and a trachea cannula. Each guinea pig received 4 actuations containing 32 ug drug/actuation. The guinea pigs were antigen (ovalalbumin) challenged at varied times and pulmonary dynamic compliance was tested using a Buxco pulmonary mechanics analyzer (Buxco Electronics, Sharon Conn.) according to the method of Amdur and Mead (The American Journal of Physiology, Vol. 92, pp. 364-368 (1958)).
# [4] = system: tumor necrosis factor (TNF); assay: TNF levels in lung lavage and serum after inhalation of IMQ MDI formulations; format: in vivo, mouse; conditions: mice
# Experimental: Typically, the animals were exposed to 20 actuations per minute for 25 minutes of an MDI generated 2 micron average MMAD aerosol. Lung lavage and bleeding of the exposed mice, were performed by standard methods known to those skilled in the art and tumor necrosis factor (TNF) analyses were performed by an ELISA method specific for TNF in the mouse (Genzyme Immunobiologicals, Cambridge, Mass.). TNF is a marker for this drug's activity. Pulmonary therapy application of IMQ prefers drug activity localized in the lung. Therefore, it was desirable to maintain high levels of drug in the lung and minimize systemic drug. However, this formulation and method could also clearly be used to provide long term release of IMQ or analogous compounds for systemic applications. The lavage numbers are measurements of TNF levels in the lung while the serum levels measure systemic TNF levels.
# [5] = PLA/Drug molar ratio 0 (drug alone)
compound,measurement,setting,value
CCN(CC)CC(=O)Nc1c(C)cccc1C [Lidocaine HCl],Tg,[1]; HCl,30.7 °C
CN(C)[C@@H]1C(O)=C(C(N)=O)C(=O)[C@@]2(O)C(O)=C3C(=O)c4c(O)cccc4[C@@](C)(O)[C@H]3C[C@@H]12 [Tetracycline HCl],Tg,[1],50.5 °C
Albuterol sulfate,Tg,[1],49 °C
acetyl-poly (L-lactic acid) [Example 7],Degradation Temperature,[2],>225 °C
CC(C)(C)NCC(O)c1ccc(O)c(CO)c1 (stereo not drawn) [Albuterol base],Tg,[1],48.9 °C
[H]/N=C(\N/C(=N/[H])NCCCCCCNC(=N)NC(=N)Nc1ccc(Cl)cc1)Nc1ccc(Cl)cc1 [Chlorhexidine base],Tg,[1],38.5 °C
same,Degradation Temperature,[2]; [5],>225 °C
CN(C)[C@@H]1C(O)=C(C(N)=O)C(=O)[C@@]2(O)C(O)=C3C(=O)c4c(O)cccc4[C@@](C)(O)[C@H]3C[C@@H]12 [Tetracycline],Degradation Temperature,[2]; [5],179 °C
CCN(CC)CC(=O)Nc1c(C)cccc1C [Lidocaine],Tg,[1],none
same,Degradation Temperature,[2]; [5],159 °C
CCC(CC)N(O)C(=O)Nc1ccccc1 [Example 5LO],Percent Inhibition of Bronchoconstriction,[3]; challenge 15 minutes after dosing,67%
same,Percent Inhibition of Bronchoconstriction,[3]; challenge 30 minutes after dosing,48%
same,Percent Inhibition of Bronchoconstriction,[3]; challenge 60 minutes after dosing,4%
Cc1nc2c(N)nc3ccccc3c2n1CC(C)(C)O [IMQ alone],"TNF level, Lavage",[4]; 0 hours after dosing,40 pg/mL
same,"TNF level, Serum",[4]; 0 hours after dosing,13 pg/mL
same,"TNF level, Lavage",[4]; 1 hour after dosing,105 pg/mL
same,"TNF level, Serum",[4]; 1 hour after dosing,6 pg/mL
same,"TNF level, Lavage",[4]; 2 hours after dosing,213 pg/mL
same,"TNF level, Serum",[4]; 2 hours after dosing,193 pg/mL
same,"TNF level, Lavage",[4]; 4 hours after dosing,144 pg/mL
same,"TNF level, Serum",[4]; 4 hours after dosing,577 pg/mL
